Positions of bridges follow the written chain, without caps; N, C: chain ends. Non-standard residues stand in square brackets, D forms with d. Residues, ends and D or L forms follow the SMILES beside them. *: point of attachment. Ileψ(thiazoline)Cys = CC[C@H](C)[C@H](N)C1=N[C@H](C(=O)*)CS1; dOrn = NCCC[C@@H](N)C(=O)O
Species on record: Rattus norvegicus
Test: DrugMatrix - Regimen: Daily Repeat
Assay type: toxicity, organism-based, Sprague-Dawley
Parameters: regimen Daily Repeat, gender Male, age 6-8 weeks
Conditions: in vivo, sc, route subcutaneous, […]; for ABSOLUTE BASOPHIL / ABSOLUTE EOSINOPHIL / ABSOLUTE LYMPHOCYTE / ABSOLUTE MONOCYTE / ABSOLUTE SEGMENTED NEUTROPHIL / BASOPHIL / EOSINOPHIL / ERYTHROCYTE COUNT / HEMATOCRIT / HEMOGLOBIN / LEUKOCYTE COUNT / LYMPHOCYTE / MEAN CORPUSCULAR HEMOGLOBIN / MEAN CORPUSCULAR HEMOGLOBIN CONCENTRATION / MEAN CORPUSCULAR VOLUME / MONOCYTE / NEUTROPHIL / NUCLEATED RED BLOOD CELLS / PLATELET COUNT: tissue Blood; for ALANINE AMINOTRANSFERASE / ALBUMIN / ALKALINE PHOSPHATASE / ASPARTATE AMINOTRANSFERASE / BLOOD UREA NITROGEN / CARBON DIOXIDE / CHLORIDE / CHOLESTEROL / CREATINE PHOSPHOKINASE / CREATININE / GLUCOSE / LACTATE DEHYDROGENASE / LIPASE / PHOSPHORUS / POTASSIUM / SODIUM / TOTAL BILIRUBIN / TOTAL PROTEIN / URIC ACID: tissue Plasma
[1] = 380 mg/kg, 72 h, dose level High, time 3 day
[2] = 380 mg/kg, 120 h, dose level High, time 5 day
[3] = 72 h, dose 7.6 mg/Kg, dose level Low, time 3 day
[4] = 120 h, dose 7.6 mg/Kg, dose level Low, time 5 day

## CC[C@H](C)[C@H](N)C1=N[C@H](C(=O)N[C@@H](CC(C)C)C(=O)N[C@H](CCC(=O)O)C(=O)N[C@H](C(=O)N[C@H]2CCCCNC(=O)[C@H](CC(N)=O)NC(=O)[C@@H](CC(=O)O)NC(=O)[C@H](Cc3cnc[nH]3)NC(=O)[C@@H](Cc3ccccc3)NC(=O)[C@H]([C@@H](C)CC)NC(=O)[C@@H](CCCN)NC2=O)[C@@H](C)CC)CS1 [BACITRACIN] ({Ileψ(thiazoline)Cys}-L[dE]IK[dOrn]I[dF]H[dD]N; lactam 4-C)
[1]
  ABSOLUTE BASOPHIL: 0 CELLS/uL
  ABSOLUTE EOSINOPHIL: 42 CELLS/uL
  ABSOLUTE LYMPHOCYTE: 8742.33 CELLS/uL
  ABSOLUTE MONOCYTE: 132.67 CELLS/uL
  ABSOLUTE SEGMENTED NEUTROPHIL: 3249.67 CELLS/uL
  BASOPHIL: 0%
  EOSINOPHIL: 0.33%
  ERYTHROCYTE COUNT: 4.93 x10E6/uL
  HEMATOCRIT: 31.17%
  HEMOGLOBIN: 12.4 G/DL
  LEUKOCYTE COUNT: 12.17 x10E3/uL
  LYMPHOCYTE: 71.67%
  MEAN CORPUSCULAR HEMOGLOBIN: 25.1 pg
  MEAN CORPUSCULAR HEMOGLOBIN CONCENTRATION: 39.8 G/DL
  MEAN CORPUSCULAR VOLUME: 63.1 fL
  MONOCYTE: 1%
  NEUTROPHIL: 27%
  NUCLEATED RED BLOOD CELLS: 0.67 /100WBC
  PLATELET COUNT: 1256.33 x10E3/uL
  ALANINE AMINOTRANSFERASE: 168 u/L
  ALBUMIN: 3.13 G/DL
  ALKALINE PHOSPHATASE: 252 u/L
  ASPARTATE AMINOTRANSFERASE: 595.67 u/L
  BLOOD UREA NITROGEN: 127.67 mg/dL
  CARBON DIOXIDE: 23.33 mmol/L
  CHLORIDE: 90.67 MEQ/L
  CHOLESTEROL: 114.33 mg/dL
  CREATINE PHOSPHOKINASE: 288.33 u/L
  CREATININE: 4.29 mg/dL
  GLUCOSE: 146.67 mg/dL
  LACTATE DEHYDROGENASE: 577.67 u/L
  LIPASE: 8.67 u/L
  PHOSPHORUS: 15.2 mg/dL
  POTASSIUM: 7.31 MEQ/L
  SODIUM: 136.43 MEQ/L
  TOTAL BILIRUBIN: 0.37 mg/dL
  TOTAL PROTEIN: 5.8 G/DL
  URIC ACID: 1.37 mg/dL
[2]
  ABSOLUTE BASOPHIL: 0 CELLS/uL
  ABSOLUTE EOSINOPHIL: 0 CELLS/uL
  ABSOLUTE LYMPHOCYTE: 16005 CELLS/uL
  ABSOLUTE MONOCYTE: 832 CELLS/uL
  ABSOLUTE SEGMENTED NEUTROPHIL: 5863 CELLS/uL
  BASOPHIL: 0%
  EOSINOPHIL: 0%
  ERYTHROCYTE COUNT: 5.69 x10E6/uL
  HEMATOCRIT: 34%
  HEMOGLOBIN: 13.77 G/DL
  LEUKOCYTE COUNT: 22.7 x10E3/uL
  LYMPHOCYTE: 70.67%
  MEAN CORPUSCULAR HEMOGLOBIN: 24.2 pg
  MEAN CORPUSCULAR HEMOGLOBIN CONCENTRATION: 40.47 G/DL
  MEAN CORPUSCULAR VOLUME: 59.77 fL
  MONOCYTE: 3.67%
  NEUTROPHIL: 25.67%
  NUCLEATED RED BLOOD CELLS: 0.33 /100WBC
  PLATELET COUNT: 1853.67 x10E3/uL
  ALANINE AMINOTRANSFERASE: 104 u/L
  ALBUMIN: 3.33 G/DL
  ALKALINE PHOSPHATASE: 228.33 u/L
  ASPARTATE AMINOTRANSFERASE: 305.67 u/L
  BLOOD UREA NITROGEN: 48 mg/dL
  CARBON DIOXIDE: 25.33 mmol/L
  CHLORIDE: 96.33 MEQ/L
  CHOLESTEROL: 99.67 mg/dL
  CREATINE PHOSPHOKINASE: 335 u/L
  CREATININE: 0.95 mg/dL
  GLUCOSE: 137.67 mg/dL
  LACTATE DEHYDROGENASE: 484.67 u/L
  LIPASE: 9 u/L
  PHOSPHORUS: 11.2 mg/dL
  POTASSIUM: 6.3 MEQ/L
  SODIUM: 133.53 MEQ/L
  TOTAL BILIRUBIN: 0.17 mg/dL
  TOTAL PROTEIN: 6.1 G/DL
  URIC ACID: 2.73 mg/dL
[3]
  ABSOLUTE BASOPHIL: 0 CELLS/uL
  ABSOLUTE EOSINOPHIL: 0 CELLS/uL
  ABSOLUTE LYMPHOCYTE: 8685.33 CELLS/uL
  ABSOLUTE MONOCYTE: 135 CELLS/uL
  ABSOLUTE SEGMENTED NEUTROPHIL: 1146.33 CELLS/uL
  BASOPHIL: 0%
  EOSINOPHIL: 0%
  ERYTHROCYTE COUNT: 6.24 x10E6/uL
  HEMATOCRIT: 39.37%
  HEMOGLOBIN: 15.53 G/DL
  LEUKOCYTE COUNT: 9.97 x10E3/uL
  LYMPHOCYTE: 87.33%
  MEAN CORPUSCULAR HEMOGLOBIN: 24.9 pg
  MEAN CORPUSCULAR HEMOGLOBIN CONCENTRATION: 39.47 G/DL
  MEAN CORPUSCULAR VOLUME: 63.13 fL
  MONOCYTE: 1.33%
  NEUTROPHIL: 11.33%
  NUCLEATED RED BLOOD CELLS: 0 /100WBC
  PLATELET COUNT: 1341.67 x10E3/uL
  ALANINE AMINOTRANSFERASE: 22.67 u/L
  ALBUMIN: 4.77 G/DL
  ALKALINE PHOSPHATASE: 372.67 u/L
  ASPARTATE AMINOTRANSFERASE: 95 u/L
  BLOOD UREA NITROGEN: 17.33 mg/dL
  CARBON DIOXIDE: 22 mmol/L
  CHLORIDE: 105.67 MEQ/L
  CHOLESTEROL: 79.33 mg/dL
  CREATINE PHOSPHOKINASE: 677 u/L
  CREATININE: 0.21 mg/dL
  GLUCOSE: 182 mg/dL
  LACTATE DEHYDROGENASE: 728.67 u/L
  LIPASE: 9 u/L
  PHOSPHORUS: 14.07 mg/dL
  POTASSIUM: 6.5 MEQ/L
  SODIUM: 151.33 MEQ/L
  TOTAL BILIRUBIN: 0.2 mg/dL
  TOTAL PROTEIN: 6.97 G/DL
  URIC ACID: 2.53 mg/dL
[4]
  ABSOLUTE BASOPHIL: 0 CELLS/uL
  ABSOLUTE EOSINOPHIL: 40 CELLS/uL
  ABSOLUTE LYMPHOCYTE: 10682 CELLS/uL
  ABSOLUTE MONOCYTE: 80 CELLS/uL
  ABSOLUTE SEGMENTED NEUTROPHIL: 864.67 CELLS/uL
  BASOPHIL: 0%
  EOSINOPHIL: 0.33%
  ERYTHROCYTE COUNT: 4.88 x10E6/uL
  HEMATOCRIT: 31.97%
  HEMOGLOBIN: 12.4 G/DL
  LEUKOCYTE COUNT: 11.67 x10E3/uL
  LYMPHOCYTE: 90.67%
  MEAN CORPUSCULAR HEMOGLOBIN: 25.37 pg
  MEAN CORPUSCULAR HEMOGLOBIN CONCENTRATION: 38.97 G/DL
  MEAN CORPUSCULAR VOLUME: 65.07 fL
  MONOCYTE: 0.67%
  NEUTROPHIL: 8.33%
  NUCLEATED RED BLOOD CELLS: 0.67 /100WBC
  PLATELET COUNT: 938.67 x10E3/uL
  ALANINE AMINOTRANSFERASE: 50 u/L
  ALBUMIN: 4.2 G/DL
  ALKALINE PHOSPHATASE: 312.33 u/L
  ASPARTATE AMINOTRANSFERASE: 77 u/L
  BLOOD UREA NITROGEN: 17.33 mg/dL
  CARBON DIOXIDE: 27 mmol/L
  CHLORIDE: 103.67 MEQ/L
  CHOLESTEROL: 66 mg/dL
  CREATINE PHOSPHOKINASE: 146.67 u/L
  CREATININE: 0.2 mg/dL
  GLUCOSE: 146.33 mg/dL
  LACTATE DEHYDROGENASE: 121 u/L
  LIPASE: 8.67 u/L
  PHOSPHORUS: 12.63 mg/dL
  POTASSIUM: 6.86 MEQ/L
  SODIUM: 148.7 MEQ/L
  TOTAL BILIRUBIN: 0.2 mg/dL
  TOTAL PROTEIN: 6 G/DL
  URIC ACID: 1.4 mg/dL
